# Read-outs that look alike come from different tables or passages of the source.
# Legend:
# production of IgE = conditions: cited from earlier work
# [1] = system: rat with enhanced bone destruction by administration of parathyroid hormone; conditions: cited from earlier work
# [2] = system: microtubule-associated protein; conditions: after the brain ischemia; cited from earlier work
# [3] = system: brain trauma models of rat; conditions: cited from earlier work
# papain = molecular target: T1, papain (Carica papaya, UniProt P00784); test: Thiol protease inhibitory activity against papain (P-3125, Sigma); assay type: biochemical; conditions: Table 3; read-out: IC50 (μM) papain
# T1 sequence (P00784 134-345): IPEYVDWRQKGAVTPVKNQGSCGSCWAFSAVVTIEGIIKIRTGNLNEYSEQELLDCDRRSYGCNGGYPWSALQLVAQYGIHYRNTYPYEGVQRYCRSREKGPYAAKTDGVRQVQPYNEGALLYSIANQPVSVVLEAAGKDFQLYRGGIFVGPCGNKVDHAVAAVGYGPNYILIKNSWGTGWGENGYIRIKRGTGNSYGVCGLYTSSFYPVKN
# Protocol: (§1) Inhibitory activity against papain (P-3125, Sigma) and cathepsin B (C-6286, Sigma) was assayed according to the method described in a literature [Biochemical Journal, 201, 189 (1982)]. Capthesin L was purified from rat kidney according to the method in a literature [Journal of Biochemistry, 100, 35 (1986)], and the inhibitory activity against it was assayed in the same manner as described in the above literature for cathepsin B. Further, m-calpain was purified from rat brain according to a known method [Journal of Biological Chemistry, 254, p.3210 (1984)] and the inhibitory activity against it was assayed by a method described in a literature [Journal of Biological Chemistry, 259, 12489 (1984)]. The results are showing in Tables 3 and 4. It is evident from Tables 3 and 4 that the compounds in the present invention have a potent inhibitory activity against thiol proteases such as papain, cathepsin B, cathepsin L, m-calpain or the like.
# cathepsin B = molecular target: T2, cathepsin B (Bos taurus, UniProt P07688); test: Thiol protease inhibitory activity against cathepsin B (C-6286, Sigma); assay type: biochemical
# T2 construct: purchased Sigma C-6286
# Protocol: as §1
# cathepsin L = molecular target: T3, cathepsin L (Rattus norvegicus, UniProt P07154); test: Thiol protease inhibitory activity against cathepsin L purified from rat kidney; assay type: biochemical
# T3 construct: Capthesin L was purified from rat kidney; from tissue; host or cells: rat kidney
# T3 sequence (P07154 114-288 limits assumed): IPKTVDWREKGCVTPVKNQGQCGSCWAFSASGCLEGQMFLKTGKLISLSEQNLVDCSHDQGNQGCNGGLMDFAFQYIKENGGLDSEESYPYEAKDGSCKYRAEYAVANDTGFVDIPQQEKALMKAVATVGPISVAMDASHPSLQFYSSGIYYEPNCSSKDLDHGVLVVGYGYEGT
# T3 sequence (P07154 291-334 limits assumed): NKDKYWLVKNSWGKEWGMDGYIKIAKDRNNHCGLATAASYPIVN
# Protocol: as §1
# m-calpain = molecular target: T4, m-calpain (Rattus norvegicus, UniProt Q07009); test: Thiol protease inhibitory activity against m-calpain purified from rat brain; assay type: biochemical
# T4 construct: m-calpain was purified from rat brain; from tissue; host or cells: rat brain
# T4 sequence (Q07009 20-700 limits assumed): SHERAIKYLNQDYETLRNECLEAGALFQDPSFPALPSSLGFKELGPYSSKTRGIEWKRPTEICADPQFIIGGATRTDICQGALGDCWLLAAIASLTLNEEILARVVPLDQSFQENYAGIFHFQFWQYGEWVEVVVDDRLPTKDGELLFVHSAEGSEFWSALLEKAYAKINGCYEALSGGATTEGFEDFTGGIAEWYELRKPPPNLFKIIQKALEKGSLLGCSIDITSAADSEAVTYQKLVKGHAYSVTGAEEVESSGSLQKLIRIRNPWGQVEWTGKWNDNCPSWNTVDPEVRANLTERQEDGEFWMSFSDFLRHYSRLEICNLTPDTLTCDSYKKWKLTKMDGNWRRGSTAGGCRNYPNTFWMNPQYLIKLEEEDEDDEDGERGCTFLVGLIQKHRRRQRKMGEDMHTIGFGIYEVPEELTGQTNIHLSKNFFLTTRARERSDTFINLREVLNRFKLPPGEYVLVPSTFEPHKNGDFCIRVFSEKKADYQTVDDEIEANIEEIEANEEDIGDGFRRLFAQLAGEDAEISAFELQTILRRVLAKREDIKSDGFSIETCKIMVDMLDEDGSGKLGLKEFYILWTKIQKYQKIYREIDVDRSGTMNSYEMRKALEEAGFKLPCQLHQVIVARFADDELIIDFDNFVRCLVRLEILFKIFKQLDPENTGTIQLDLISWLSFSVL
# T4 sequence (Q64537 1-270 partner): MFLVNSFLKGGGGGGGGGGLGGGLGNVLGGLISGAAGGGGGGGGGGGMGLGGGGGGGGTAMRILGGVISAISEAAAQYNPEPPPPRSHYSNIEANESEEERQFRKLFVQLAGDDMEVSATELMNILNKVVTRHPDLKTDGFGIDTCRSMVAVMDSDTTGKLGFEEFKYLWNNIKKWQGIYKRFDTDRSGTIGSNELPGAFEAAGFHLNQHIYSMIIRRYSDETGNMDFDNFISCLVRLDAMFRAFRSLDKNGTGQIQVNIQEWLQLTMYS
# Outline: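 Papain and bovine cathepsin B assayed by a published method; cathepsin L purified from rat kidney and tested as for cathepsin B. m-Calpain purified from rat brain and assayed by a separate published method.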
# [4] = Acute oral toxicity, rats observed for 7 days; conditions: rat, in vivo, suspension in 0.5% CMC-Na aqueous solution, SD female and male rats, 7 days observation
# Protocol: The LD50 value of the compound (I) prepared in Example 1 is: >2,000 mg/kg.
# cataract animal models = conditions: cited from earlier work
# [5] = system: cardiac infarction animal models; conditions: cited from earlier work
# [6] = system: experimental muscular dystrophy hamster; conditions: cited from earlier work
# [7] = system: aggregation of platelet caused by thrombin; conditions: cited from earlier work
# [8] = Table 3, read-out: IC50 (μM) cathepsin B
# [9] = Table 3, rat kidney enzyme, read-out: IC50 (μM) cathepsin L
# [10] = Table 3, rat brain enzyme, read-out: IC50 (μM) m-calpain
compound,measurement,setting,value
NC(N)=NCCCCNC(=O)[C@H](Cc1ccccc1)NC(=O)[C@H]1O[C@@H]1C(=O)O [Estatin A],production of IgE,production of IgE,specifically inhibit the production of IgE
same,production of IgG,production of IgE,without affecting on the production of IgG
same,calcium concentration in blood,[1],decrease
same,hydroxyproline concentration in blood,[1],decrease
CC(C)CCNC(=O)[C@H](CC(C)C)NC(=O)[C@H]1O[C@@H]1C(=O)O [E-64-C],degradation of microtubule-associated protein,[2],inhibits the degradation of microtubule-associated protein
CC(=O)N[C@@H](CC(C)C)C(=O)N[C@@H](CC(C)C)C(=O)N[C@H](C=O)CCCNC(=N)N [leupetin],axon protection,[3],can protect axon
"CC(C)C[C@H](NC(=O)OCC1CCCCC1)C(=O)N[C@@H](C(C)C)[C@@H](O)c1c(-c2ccccc2)c1=O [1 (No. 77), 2-[(1S,2S)-2-{(s)-2-cyclohexylmethoxycarbonylamino-4-methylvalerylamino}-1-hydroxy-3-methylbuthyl]-3-phenylcyclopropenone]",IC50,papain,0.054 µM
same,IC50,cathepsin B; [8],0.71 µM
same,IC50,cathepsin L; [9],0.00086 µM
same,IC50,m-calpain; [10],1.6 µM
same,LD50 at 168 h,[4],> 2000 mg/kg
CC(C)C[C@H](NC(=O)[C@H]1O[C@@H]1C(=O)O)C(=O)NCCCCNC(=N)N [E-64],effect on cataract,cataract animal models,effective on cataract
same,calcium concentration in blood,[1],decrease
same,hydroxyproline concentration in blood,[1],decrease
"CCCC[C@H](NC(=O)[C@H](CC(C)C)NC(=O)OCC1CCCCC1)C(O)c1c(-c2ccc([Si](C)(C)C)s2)c1=O (stereo partly drawn) [115 (No. 387), 2-[(2S)-2-((S)-2-cyclohexylmethoxycarbonylamino-4-methylvalerylamino)-1-hydroxy-1-hexyl]-3-(5-trimethylsilyl-2-thienyl)cyclopropenone]",IC50,papain,0.48 µM
same,IC50,cathepsin B,1.5 µM
same,IC50,cathepsin L,0.27 µM
same,IC50,m-calpain,11 µM
CCOC(=O)[C@@H]1O[C@H]1C(=O)NC(CC(C)C)C(=O)N1CCN(Cc2ccc(OC)c(OC)c2OC)CC1.CCOC(=O)[C@@H]1O[C@H]1C(=O)NC(CC(C)C)C(=O)N1CCN(Cc2ccc(OC)c(OC)c2OC)CC1.O=S(=O)(O)O (stereo partly shown) [NCO-700],effect on cardiac infarction,[5],effective on cardiac infarction
"CCCC[C@H](NC(=O)[C@H](CC(C)C)NC(=O)OCc1ccccc1)C(O)c1c(-c2ccccc2)c1=O (stereo partly drawn) [95 (No. 281), 2-[(2S)-2-((S)-2-benzyloxycarbonylamino-4-methylvalerylamino]-1-hydroxyhexyl]-3-phenylcyclopropenone]",IC50,papain,13 µM
same,IC50,cathepsin B; [8],11 µM
same,IC50,cathepsin L; [9],1.27 µM
same,IC50,m-calpain; [10],3 µM
CCOC(=O)[C@H]1O[C@@H]1C(=O)N[C@@H](CC(C)C)C(=O)NCCC(C)C [E-64-d],life-prolonging effect,[6],life-prolonging effect
same,aggregation of platelet,[7],suppressed aggregation of platelet
